From patent publication US12252524B2, “GIP/GLP1 co-agonist compounds” (Eli Lilly and Company, priority 2018, dated 2025)
Numbered stars: 1 amine (or outer) side, 2 acyl side, 3 side chain; on linkers, the order of the positions; unused ones are H or OH. Square brackets hold non-standard residues; d marks the D form. Side chains are listed from the residue outwards. Peptide text beside a SMILES is read from it. * marks the point of attachment. C20 diacid = O=C(O)CCCCCCCCCCCCCCCCCCC(=O)*; γGlu = O=C(O)[C@H](CCC(=O)[*:2])N[*:1]; αMeL = CC(C)C[C@](C)(N)C(=O)O; αMeK = C[C@](N)(CCCCN)C(=O)O; AEEA = NCCOCCOCC(=O)O; Aib = CC(C)(N)C(=O)O

Key:
[1] = target: T1, human Gcg receptor (Homo sapiens, UniProt P47871); experiment: [125I]-Glucagon binding (SPA), human Gcg receptor; details: read-out: hGLcgR Ki, nM (SEM, n)
T1 construct: expressed in transfected cells; crude membranes
T1 sequence (P47871 26-477): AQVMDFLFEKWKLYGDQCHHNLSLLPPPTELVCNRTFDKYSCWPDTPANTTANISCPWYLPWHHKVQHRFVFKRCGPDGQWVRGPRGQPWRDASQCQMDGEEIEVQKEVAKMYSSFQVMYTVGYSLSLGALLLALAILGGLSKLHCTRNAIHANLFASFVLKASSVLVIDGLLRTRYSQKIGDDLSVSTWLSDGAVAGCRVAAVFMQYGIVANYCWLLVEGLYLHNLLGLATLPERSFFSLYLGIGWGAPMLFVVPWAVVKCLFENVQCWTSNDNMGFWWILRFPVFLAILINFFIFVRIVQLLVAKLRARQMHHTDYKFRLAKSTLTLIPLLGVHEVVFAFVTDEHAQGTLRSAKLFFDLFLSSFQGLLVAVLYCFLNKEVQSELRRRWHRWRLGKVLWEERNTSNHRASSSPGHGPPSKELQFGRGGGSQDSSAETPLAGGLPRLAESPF
Summary of the method: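 Crude membranes from cells expressing the receptor, prepared by hypotonic lysis in 50 mM Tris HCl pH 7.5 with protease inhibitors, homogenization and differential centrifugation, were used in a WGA-bead SPA. Binding buffer: 25 mM HEPES pH 7.4, 2.5 mM CaCl2, 1 mM MgCl2, bacitracin, Tween-20.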

[2] = target: T2, gastric inhibitory peptide receptor (GIPR) (Homo sapiens, UniProt P48546); experiment: cAMP pharmacological functional assay in presence of casein, hGIPR; assay type: cell-based; details: HEK293 cells expressing hGIPR, 0.1% Casein, geometric mean; read-out: hGIPR cAMP Rel EC50 nM (SEM, n)
T2 sequence (P48546 22-466): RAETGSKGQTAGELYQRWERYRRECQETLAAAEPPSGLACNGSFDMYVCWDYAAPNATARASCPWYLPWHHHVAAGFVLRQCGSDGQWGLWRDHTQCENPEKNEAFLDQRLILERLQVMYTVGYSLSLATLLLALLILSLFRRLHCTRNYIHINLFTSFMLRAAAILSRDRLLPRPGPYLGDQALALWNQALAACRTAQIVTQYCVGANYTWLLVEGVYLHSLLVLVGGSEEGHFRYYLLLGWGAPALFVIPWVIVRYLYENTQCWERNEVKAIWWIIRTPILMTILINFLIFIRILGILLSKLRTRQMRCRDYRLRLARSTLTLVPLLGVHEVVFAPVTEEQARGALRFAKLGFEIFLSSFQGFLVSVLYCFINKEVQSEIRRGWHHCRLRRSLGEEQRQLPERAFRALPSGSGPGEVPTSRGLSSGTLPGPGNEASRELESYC

[3] = target: human GLP-1R (Homo sapiens, UniProt P43220); experiment: [125I]-GLP-1 binding (SPA), human GLP-1 receptor; parameters: expressed in transfected cells; crude membranes; details: read-out: hGLP1R Ki, (nM) (SEM, n)
Sequence of human GLP-1R (P43220 24-463): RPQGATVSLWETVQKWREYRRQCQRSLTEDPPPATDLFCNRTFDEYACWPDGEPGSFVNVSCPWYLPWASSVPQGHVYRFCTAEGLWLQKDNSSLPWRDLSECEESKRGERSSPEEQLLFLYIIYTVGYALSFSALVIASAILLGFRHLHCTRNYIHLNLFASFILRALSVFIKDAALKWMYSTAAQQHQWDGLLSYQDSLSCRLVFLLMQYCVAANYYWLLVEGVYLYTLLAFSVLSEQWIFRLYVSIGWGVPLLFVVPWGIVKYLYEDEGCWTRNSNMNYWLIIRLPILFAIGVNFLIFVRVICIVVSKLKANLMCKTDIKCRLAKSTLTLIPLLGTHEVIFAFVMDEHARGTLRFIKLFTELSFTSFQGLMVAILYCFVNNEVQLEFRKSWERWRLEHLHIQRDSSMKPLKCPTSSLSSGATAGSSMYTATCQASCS
Summary of the method: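 Frozen cell pellets are lysed on ice in hypotonic Tris buffer, pH 7.5, homogenized, and centrifuged to a membrane pellet resuspended at about 1 to 3 mg/mL. Binding is then measured in HEPES-based buffer at pH 7.4, and curves are fitted to give IC50 and Ki.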

[4] = target: human GLP-1 receptor (GLP-1R) (Homo sapiens, UniProt P43220); experiment: cAMP pharmacological functional assay in presence of casein, hGLP-1R; assay type: cell-based; details: HEK293 cells expressing hGLP-1R, 0.1% Casein, geometric mean; read-out: hGLP1R cAMP Rel EC50 nM (SEM, n)
Sequence of human GLP-1 receptor (GLP-1R) (P43220 24-463): as above

[5] = target: T3, human GIP receptor (Homo sapiens, UniProt P48546); experiment: [125I]-GIP binding (SPA), human GIP receptor; details: read-out: hGIPR Ki, nM (SEM, n)
T3 construct: expressed in transfected cells; crude membranes
T3 sequence (P48546 22-466): T2 sequence (P48546 22-466)

CC[C@H](C)[C@H](NC(=O)[C@H](Cc1ccccc1)NC(=O)[C@H](C)NC(=O)[C@](C)(CCCCN)NC(=O)[C@H](CCC(N)=O)NC(=O)[C@H](C)NC(=O)[C@H](CCCCNC(=O)COCCOCCNC(=O)COCCOCCNC(=O)CC[C@H](NC(=O)CCCCCCCCCCCCCCCCCCC(=O)O)C(=O)O)NC(=O)[C@H](CCC(=O)O)NC(=O)[C@H](CC(=O)O)NC(=O)[C@H](CC(C)C)NC(=O)[C@](C)(CC(C)C)NC(=O)[C@@H](NC(=O)[C@H](CO)NC(=O)[C@H](Cc1ccc(O)cc1)NC(=O)[C@H](CC(=O)O)NC(=O)[C@H](CO)NC(=O)[C@@H](NC(=O)[C@H](Cc1ccccc1)NC(=O)[C@@H](NC(=O)CNC(=O)[C@H](CCC(=O)O)NC(=O)C(C)(C)NC(=O)[C@@H](N)Cc1ccc(O)cc1)[C@@H](C)O)[C@@H](C)O)[C@@H](C)CC)C(=O)N[C@@H](CCC(=O)O)C(=O)N[C@@H](Cc1ccc(O)cc1)C(=O)N[C@@H](CC(C)C)C(=O)N[C@@H](CC(C)C)C(=O)N[C@@H](CCC(=O)O)C(=O)NC(C)(C)C(=O)NCC(=O)N1CCC[C@H]1C(=O)N[C@@H](CO)C(=O)N[C@@H](CO)C(=O)NCC(=O)N[C@@H](C)C(=O)N1CCC[C@H]1C(=O)N1CCC[C@H]1C(=O)N1CCC[C@H]1C(=O)N[C@@H](CO)C(N)=O [Example 22] (H-Y[Aib]EGTFTSDYSI[αMeL]LDEK([AEEA-AEEA-γGlu-C20 diacid])AQ[αMeK]AFIEYLLE[Aib]GPSSGAPPPS-NH2; N-terminus assumed)
Ki [1]: 53.4 nM | EC50 [2]: 0.0842 nM | Ki [3]: 23.1 nM | EC50 [4]: 0.206 nM | Ki [5]: 0.624 nM

CC[C@H](C)[C@H](NC(=O)[C@H](CCCCN)NC(=O)[C@H](CC(=O)O)NC(=O)[C@H](CC(C)C)NC(=O)[C@H](CC(C)C)NC(=O)[C@@H](NC(=O)[C@H](CO)NC(=O)[C@H](CCCCNC(=O)COCCOCCNC(=O)COCCOCCNC(=O)CC[C@H](NC(=O)CCCCCCCCCCCCCCCCCCC(=O)O)C(=O)O)NC(=O)[C@H](CC(=O)O)NC(=O)[C@H](CO)NC(=O)[C@@H](NC(=O)[C@H](Cc1ccccc1)NC(=O)[C@@H](NC(=O)CNC(=O)[C@H](CCC(=O)O)NC(=O)C(C)(C)NC(=O)[C@@H](N)Cc1ccc(O)cc1)[C@@H](C)O)[C@@H](C)O)[C@@H](C)CC)C(=O)N[C@@H](C)C(=O)N[C@@H](CCC(N)=O)C(=O)NC(C)(C)C(=O)N[C@@H](C)C(=O)N[C@@H](Cc1ccccc1)C(=O)N[C@H](C(=O)N[C@@H](CCC(=O)O)C(=O)N[C@@H](Cc1ccc(O)cc1)C(=O)N[C@@H](CC(C)C)C(=O)N[C@H](C(=O)N[C@@H](CCC(=O)O)C(=O)NCC(=O)NCC(=O)N1CCC[C@H]1C(=O)N[C@@H](CO)C(=O)N[C@@H](CO)C(=O)NCC(=O)N[C@@H](C)C(=O)N1CCC[C@H]1C(=O)N1CCC[C@H]1C(=O)N1CCC[C@H]1C(=O)N[C@@H](CO)C(N)=O)[C@@H](C)CC)[C@@H](C)CC [Example 23] (H-Y[Aib]EGTFTSDK([AEEA-AEEA-γGlu-C20 diacid])SILLDKIAQ[Aib]AFIEYLIEGGPSSGAPPPS-NH2)
Ki [1]: > 1010 nM | EC50 [2]: 0.204 nM | Ki [3]: 6.32 nM | EC50 [4]: 0.19 nM | Ki [5]: 0.258 nM

CC[C@H](C)[C@H](NC(=O)[C@H](CCCCN)NC(=O)[C@H](CC(=O)O)NC(=O)[C@H](CC(C)C)NC(=O)[C@H](CC(C)C)NC(=O)[C@@H](NC(=O)[C@H](CCCCNC(=O)COCCOCCNC(=O)COCCOCCNC(=O)CC[C@H](NC(=O)CCCCCCCCCCCCCCCCCCC(=O)O)C(=O)O)NC(=O)[C@H](Cc1ccc(O)cc1)NC(=O)[C@H](CC(=O)O)NC(=O)[C@H](CO)NC(=O)[C@@H](NC(=O)[C@H](Cc1ccccc1)NC(=O)[C@@H](NC(=O)CNC(=O)[C@H](CCC(=O)O)NC(=O)C(C)(C)NC(=O)[C@@H](N)Cc1ccc(O)cc1)[C@@H](C)O)[C@@H](C)O)[C@@H](C)CC)C(=O)N[C@@H](C)C(=O)N[C@@H](CCC(N)=O)C(=O)NC(C)(C)C(=O)N[C@@H](C)C(=O)N[C@@H](Cc1ccccc1)C(=O)N[C@H](C(=O)N[C@@H](CCC(=O)O)C(=O)N[C@@H](Cc1ccc(O)cc1)C(=O)N[C@@H](CC(C)C)C(=O)N[C@H](C(=O)N[C@@H](CCC(=O)O)C(=O)NCC(=O)NCC(=O)N1CCC[C@H]1C(=O)N[C@@H](CO)C(=O)N[C@@H](CO)C(=O)NCC(=O)N[C@@H](C)C(=O)N1CCC[C@H]1C(=O)N1CCC[C@H]1C(=O)N1CCC[C@H]1C(=O)N[C@@H](CO)C(N)=O)[C@@H](C)CC)[C@@H](C)CC [Example 24] (H-Y[Aib]EGTFTSDYK([AEEA-AEEA-γGlu-C20 diacid])ILLDKIAQ[Aib]AFIEYLIEGGPSSGAPPPS-NH2)
Ki [1]: 49.8 nM | EC50 [2]: 0.762 nM | Ki [3]: 5.04 nM | EC50 [4]: 13 nM | Ki [5]: 0.232 nM

CC[C@H](C)[C@H](NC(=O)[C@H](CCCCN)NC(=O)[C@H](CC(=O)O)NC(=O)[C@H](CC(C)C)NC(=O)[C@H](CC(C)C)NC(=O)[C@H](CCCCNC(=O)COCCOCCNC(=O)COCCOCCNC(=O)CC[C@H](NC(=O)CCCCCCCCCCCCCCCCCCC(=O)O)C(=O)O)NC(=O)[C@H](CO)NC(=O)[C@H](Cc1ccc(O)cc1)NC(=O)[C@H](CC(=O)O)NC(=O)[C@H](CO)NC(=O)[C@@H](NC(=O)[C@H](Cc1ccccc1)NC(=O)[C@@H](NC(=O)CNC(=O)[C@H](CCC(=O)O)NC(=O)C(C)(C)NC(=O)[C@@H](N)Cc1ccc(O)cc1)[C@@H](C)O)[C@@H](C)O)C(=O)N[C@@H](C)C(=O)N[C@@H](CCC(N)=O)C(=O)NC(C)(C)C(=O)N[C@@H](C)C(=O)N[C@@H](Cc1ccccc1)C(=O)N[C@H](C(=O)N[C@@H](CCC(=O)O)C(=O)N[C@@H](Cc1ccc(O)cc1)C(=O)N[C@@H](CC(C)C)C(=O)N[C@H](C(=O)N[C@@H](CCC(=O)O)C(=O)NCC(=O)NCC(=O)N1CCC[C@H]1C(=O)N[C@@H](CO)C(=O)N[C@@H](CO)C(=O)NCC(=O)N[C@@H](C)C(=O)N1CCC[C@H]1C(=O)N1CCC[C@H]1C(=O)N1CCC[C@H]1C(=O)N[C@@H](CO)C(N)=O)[C@@H](C)CC)[C@@H](C)CC [Example 25] (H-Y[Aib]EGTFTSDYSK([AEEA-AEEA-γGlu-C20 diacid])LLDKIAQ[Aib]AFIEYLIEGGPSSGAPPPS-NH2)
Ki [1]: 81.1 nM | EC50 [2]: 0.23 nM | Ki [3]: 4.8 nM | EC50 [4]: 0.356 nM | Ki [5]: 0.179 nM

CC[C@H](C)[C@H](NC(=O)[C@H](CCCCN)NC(=O)[C@H](CC(=O)O)NC(=O)[C@H](CC(C)C)NC(=O)[C@H](CCCCNC(=O)COCCOCCNC(=O)COCCOCCNC(=O)CC[C@H](NC(=O)CCCCCCCCCCCCCCCCCCC(=O)O)C(=O)O)NC(=O)[C@@H](NC(=O)[C@H](CO)NC(=O)[C@H](Cc1ccc(O)cc1)NC(=O)[C@H](CC(=O)O)NC(=O)[C@H](CO)NC(=O)[C@@H](NC(=O)[C@H](Cc1ccccc1)NC(=O)[C@@H](NC(=O)CNC(=O)[C@H](CCC(=O)O)NC(=O)C(C)(C)NC(=O)[C@@H](N)Cc1ccc(O)cc1)[C@@H](C)O)[C@@H](C)O)[C@@H](C)CC)C(=O)N[C@@H](C)C(=O)N[C@@H](CCC(N)=O)C(=O)NC(C)(C)C(=O)N[C@@H](C)C(=O)N[C@@H](Cc1ccccc1)C(=O)N[C@H](C(=O)N[C@@H](CCC(=O)O)C(=O)N[C@@H](Cc1ccc(O)cc1)C(=O)N[C@@H](CC(C)C)C(=O)N[C@H](C(=O)N[C@@H](CCC(=O)O)C(=O)NCC(=O)NCC(=O)N1CCC[C@H]1C(=O)N[C@@H](CO)C(=O)N[C@@H](CO)C(=O)NCC(=O)N[C@@H](C)C(=O)N1CCC[C@H]1C(=O)N1CCC[C@H]1C(=O)N1CCC[C@H]1C(=O)N[C@@H](CO)C(N)=O)[C@@H](C)CC)[C@@H](C)CC [Example 26] (H-Y[Aib]EGTFTSDYSIK([AEEA-AEEA-γGlu-C20 diacid])LDKIAQ[Aib]AFIEYLIEGGPSSGAPPPS-NH2)
Ki [1]: > 960 nM | EC50 [2]: 0.251 nM | Ki [3]: 4.22 nM | EC50 [4]: 0.293 nM | Ki [5]: 0.176 nM
